Biological target: T1, PARP5A (Homo sapiens, UniProt O95271)
T1 construct: purchased BPS 80504
Assay: Determination of PARP5A enzyme (histone-coated plate, Biotin-NAD+)
Assay type: biochemical
Protocol: • 1.3.1 Preparation of buffer solution solution: PBST: 1x PBS, 0.05% Tween-20; blocking solution: 1x PBS, 0.05% Tween-20, 5% BSA; reaction buffer solution: 50 mM HEPES (pH 7.5), 0.002% Tween-20, 0.1% BSA, 100 mM NaCl, 2mM DTT. • 1.3.2 Coating: A 100 ng/mL Histone coating solution was prepared by using 1x PBS, 25 uL of the coating solution was transferred to a 384-well reaction plate, and the reaction plate was coated overnight at 4°C. • 1.3.3 Washing: After the coating was completed, the coating solution was discarded, and the reaction plate was washed with the PBST solution by means of transferring 50uL of the PBST solution to the 384-well reaction plate, letting it stand for 5 min, discarding the washing solution, refilling the reaction plate with the PBST solution, and repeating the washing process 3 times. Finally, the reaction plate was tapped dry and the next step of blocking was proceeded with. • 1.3.4 Blocking: 50 uL of the blocking solution was transferred to the 384-well reaction plate and set for 1 h. • 1.3.5 Washing: After the blocking was completed, the blocking solution was discarded, the reaction plate was washed 3 times with the PBST solution according to the method in Step 2, and the reaction plate was tapped dry. • 1.3.6 A 25/10× PARP5A solution was prepared, then 10 µL of the PARP5A solution was transferred to the 384-well reaction plate. For negative control wells, 10 µL of the reaction buffer solution instead was transferred, resulting in the final concentration of PARP5A of 10 nM. • 1.3.7 A 2,000x compound was prepared, 50 nL of the compound was transferred to with echo, 19.95 uL of the reaction buffer solution was added into the compound, mix well, and 5 uL of the mixed compound was transferred to the 384-well reaction plate. • 1.3.8 A 25/10x Biotin-NAD+ solution was prepared, 10uL of the Biotin-NAD+ solution was transferred to the 384-well reaction plate, resulting in a final Biotin-NAD+ concentration of 2uM, and incubated at room temperature for 60 min. • 1.3.9 Washing: After the reaction was completed, the reaction liquid was discarded. The reaction plate was washed 3 times with the PBST solution according to the method in Step 2, and the reaction plate was tapped dry. • 1.3.10 A Stre-HRP solution was prepared by means of diluting it with the blocking solution, 25uL of the Stre-HRP solution was transferred to the reaction plate, and incubated at room temperature for 1 h, resulting the final concentration of Stre-HRP of 0.1 µg/mL. • 1.3.11 Washing: The Stre-HRP solution was discarded, the reaction plate was washed 3 times with the PBST solution according to the method in Step 2, and the reaction plate was tapped dry. • 1.3.12 Color developing: Femto-ECL Substrate A, Femto-ECL Substrate B, and QuantaRed ADHP were mixed in a 50:50:1 ratio.

T1 sequence (O95271 1001-1327): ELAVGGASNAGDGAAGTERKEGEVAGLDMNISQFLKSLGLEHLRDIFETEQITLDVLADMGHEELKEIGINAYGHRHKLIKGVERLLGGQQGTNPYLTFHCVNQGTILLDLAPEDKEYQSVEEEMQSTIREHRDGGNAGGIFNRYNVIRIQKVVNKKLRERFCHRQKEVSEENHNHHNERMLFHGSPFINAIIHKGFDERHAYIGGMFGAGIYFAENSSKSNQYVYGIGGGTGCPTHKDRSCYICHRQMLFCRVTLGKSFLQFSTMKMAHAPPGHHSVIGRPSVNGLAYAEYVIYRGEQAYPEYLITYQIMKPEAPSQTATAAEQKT

## [2H]C([2H])([2H])C([2H])([2H])c1cc2ncc(CN3CC=C(c4ccc(C(=O)NC)nc4)CC3)cc2[nH]c1=O [Compound 6, 1'-((7-(ethyl-d5)-6-oxo-5,6-dihydro-1,5-naphthyridin-3-yl)methyl)-N-methyl-1',2',3',6'-tetrahy dro-[3,4'-bipyridine]-6-carboxamide]
  IC50: > 1000 nM
